According to US10076519B2 (CYTOKINETICS, INC., priority 2010, dated 2018):

test system: rabbit skeletal myofibrils (fast skeletal myofibrils); experiment: Activation of fast skeletal myofibrils (PUMA assay, PK/LDH-coupled ATPase at pCa25); format: biochemical; conditions: AC1.4 determined according to the procedure of Example 39; reported as class symbols
How it was run: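 Detergent-washed rabbit psoas myofibrils (~90% fast fibres, calcium-regulated) assayed at calcium giving 25% of maximal ATPase rate (pCa25). ADP turnover coupled via pyruvate kinase/lactate dehydrogenase to NADH oxidation, read at 340 nm. Buffer 12 mM PIPES, 2 mM MgCl2, 1 mM DTT, pH 6.8; AC1.4 values derived.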

Q: `CC(C)(CNc1ccc(-c2cccc(C(=O)c3ccccc3)c2)nn1)c1ccc(F)cc1` [3-(6-{[2-(4-fluorophenyl)-2-methylpropyl]amino}pyridazin-3-yl)phenyl phenyl ketone] was tested. Which “Mean AC1.4” value did it give?
A: D (D=>20 uM)

Q: How did the “Mean AC1.4” value turn out when `Fc1cccnc1C1(CNc2ccc(-c3ccc4[nH]ncc4c3)nn2)CCC1` [(6-(1H-indazol-5-yl)pyridazin-3-yl){[(3-fluoro(2-pyridyl))cyclobutyl]methyl}amine] was run?
A: A (A=<1 uM)

Q: With `NC(=O)c1cccc(C2(CNc3ccc(-c4ccc5[nH]ncc5c4)nn3)CCC2)n1` as the molecule, how does the “Mean AC1.4” value read?
A: B (B=1-10 uM)

Q: Which “Mean AC1.4” value does the source give for `NCCNc1n[nH]c2ccc(-c3ccc(NCC4(c5ncccc5F)CCC4)nn3)cc12` [(6-{3-[(2-aminoethyl)amino](1H-indazol-5-yl)}pyridazin-3-yl){[(3-fluoro(2-pyridyl))cyclobutyl]methyl}amine] here?
A: A (A=<1 uM)

Q: With `CC(C)(CNc1ccc(C(=O)NCc2cc[nH]n2)nn1)c1ccc(F)cc1` [(6-{[2-(4-fluorophenyl)-2-methylpropyl]amino}pyridazin-3-yl)-N-(pyrazol-3-ylmethyl)carboxamide] as the molecule, how does the “Mean AC1.4” value read?
A: C (C=10-20 uM)

Q: With `Cc1ccc(CCNc2ccc(-c3cccc(C(N)=O)c3)nn2)cc1` as the molecule, how does the “Mean AC1.4” value read?
A: C (C=10-20 uM)

Q: `CS(=O)(=O)N(CC1(c2ncccc2F)CNC1)c1ccc(-c2ccc3[nH]ncc3c2)nn1` [(6-(1H-indazol-5-yl)pyridazin-3-yl){[3-(3-fluoro(2-pyridyl))azetidin-3-yl]methyl}(methylsulfonyl)amine] was tested. Which “Mean AC1.4” value did it give?
A: D (D=>20 uM)

Q: For `CC(C)(CNc1ccc(-c2cc(F)cc(C(N)=O)c2)nn1)c1ccc(F)cc1` [3-fluoro-5-(6-{[2-(4-fluorophenyl)-2-methylpropyl]amino}pyridazin-3-yl)benzamide], which “Mean AC1.4” value is on record?
A: B (B=1-10 uM)

Q: `CC(C)(CNc1ccc(-c2ccc(C(N)=O)cn2)nn1)c1ccc(F)cc1` [6-(6-{[2-(4-fluorophenyl)-2-methylpropyl]amino}pyridazin-3-yl)pyridine-3-carboxamide] was tested. Which “Mean AC1.4” value did it give?
A: B (B=1-10 uM)

Q: How did the “Mean AC1.4” value turn out when `CC(C)(CNc1ccc(-c2cccc(C(N)=O)c2)nn1)c1ccc(Cl)cc1` [3-(6-{[2-(4-chlorophenyl)-2-methylpropyl]amino}pyridazin-3-yl)benzamide] was run?
A: B (B=1-10 uM)

Q: With `CC(C)(CNc1ccc(-c2ccc3[nH]nc(N)c3c2)nn1)c1ccc(CN)cc1` [[6-(3-amino(1H-indazol-5-yl))pyridazin-3-yl]{2-[4-(aminomethyl)phenyl]-2-methylpropyl}amine] as the molecule, how does the “Mean AC1.4” value read?
A: D (D=>20 uM)

Q: For `CC(C)(CNc1ccc(-c2cccc(C(N)=O)c2)nn1)c1cccc(F)c1` [3-(6-{[2-(3-fluorophenyl)-2-methylpropyl]amino}pyridazin-3-yl)benzamide], which “Mean AC1.4” value is on record?
A: A (A=<1 uM)

Q: With `CC(CNc1ccc(-c2cccc(C(N)=O)c2)nn1)c1ccccc1` (stereo not shown) [3-{6-[(2-phenylpropyl)amino]pyridazin-3-yl}benzamide] as the molecule, how does the “Mean AC1.4” value read?
A: B (B=1-10 uM)

same assay, conditions: median AC1.4 class, procedure of Example 39

Q: `CC(=O)N1CCN[C@H](C(=O)NCc2cnc(-c3ccc(NCC4(c5ncccc5F)CCC4)nn3)s2)C1` [((2S)-4-acetylpiperazin-2-yl)-N-({2-[6-({[(3-fluoro(2-pyridyl))cyclobutyl]methyl}ami-no)pyridazin-3-yl](1,3-thiazol-5-yl)}methyl)carboxamide] was tested. Which “Mean AC1.4” value did it give?
A: A (A=<1 uM)

Q: How did the “Mean AC1.4” value turn out when `O=C(NCC1CCCO1)c1cnc(-c2ccc(NCC3(c4ncccc4F)CCC3)nn2)s1` (stereo not shown) [{2-[6-({[(3-fluoro(2-pyridyl))cyclobutyl]methyl}ami-no)pyridazin-3-yl](1,3-thiazol-5-yl)}-N-(oxolan-2-ylmethyl)carboxamide] was run?
A: B (B=1-10 uM)

Q: How did the “Mean AC1.4” value turn out when `NC(=O)c1cccc(-c2ccc(NC3(c4ncccc4F)CCC3)nn2)c1` was run?
A: B (B=1-10 uM)

Q: Which “Mean AC1.4” value does the source give for `NC(=O)C(N)c1cccc(-c2ccc(NCC3(c4ncccc4F)CCC3)nn2)c1` (stereo not shown) here?
A: C (C=10-20 uM)

Q: With `NC(=O)c1ccc(F)c(-c2ccc(NC3(c4ncccc4F)CCC3)nn2)c1` as the molecule, how does the “Mean AC1.4” value read?
A: B (B=1-10 uM)

Q: How did the “Mean AC1.4” value turn out when `COC(=O)C1CN=C(c2ccc(NCC3(c4ncccc4F)CCC3)nn2)N1` (stereo not shown) was run?
A: D (D=>20 uM)

Q: `CC(=O)NCc1cnc(-c2ccc(NCC3(c4ncccc4F)CCC3)nn2)s1` [N-({2-[6-({[(3-fluoro-2-pyridyl)cyclobutyl]methyl}ami-no)pyridazin-3-yl]-1,3-thiazol-5-yl}methyl)acetamide] was tested. Which “Mean AC1.4” value did it give?
A: A (A=<1 uM)

Q: `Cn1cc(-c2ccc(NCC3(c4ncccc4F)CCC3)nn2)nc1C(N)=O` was tested. Which “Mean AC1.4” value did it give?
A: D (D=>20 uM)

Q: How did the “Mean AC1.4” value turn out when `Fc1cccnc1C1(Nc2ccc(C3CCCCC3)nn2)CCC1` [(6-cyclohexylpyridazin-3-yl)[(3-fluoro(2-pyridyl))cyclobutyl]amine] was run?
A: C (C=10-20 uM)

Q: Which “Mean AC1.4” value does the source give for `CCOC(=O)c1sc(-c2ccc(NCC3(c4ncccc4F)CCC3)nn2)nc1O` [ethyl 2-[6-({[(3-fluoro(2-pyridyl))cyclobutyl]methyl}ami-no)pyridazin-3-yl]-4-hydroxy-1,3-thiazole-5-carboxylate] here?
A: D (D=>20 uM)

Q: For `Fc1cccnc1C1(CNc2ccc(-c3nc4ccc(Cl)nc4s3)nn2)CCC1` [[6-(5-chloro(1,3-thiazolino[5,4-b]pyridin-2-yl))pyridazin-3-yl]{[(3-fluoro(2-pyridyl))cyclobutyl]methyl}amine], which “Mean AC1.4” value is on record?
A: C (C=10-20 uM)

Q: `Cc1ncc(-c2ccc(NCC3(c4ncccc4F)CCC3)nn2)cn1` [{[(3-fluoro(2-pyridyl))cyclobutyl]methyl}[6-(2-methylpyrimidin-5-yl)pyridazin-3-yl]amine] was tested. Which “Mean AC1.4” value did it give?
A: D (D=>20 uM)

Q: Which “Mean AC1.4” value does the source give for `CC(C)(CNc1ccc(-c2ccc3[nH]nc(NCCOCc4ccccc4)c3c2)nn1)c1ccc(F)cc1` [[2-(4-fluorophenyl)-2-methylpropyl][6-(3-{[2-(phenylmethoxy)ethyl]amino}(1H-indazol-5-yl))pyridazin-3-yl]amine] here?
A: A (A=<1 uM)

Q: Which “Mean AC1.4” value does the source give for `COc1cccc(-c2ccc(NC3(c4ccc(F)cc4)CCC3)nn2)n1` [[(4-fluorophenyl)cyclobutyl][6-(6-methoxy(2-pyridyl))pyridazin-3-yl]amine] here?
A: B (B=1-10 uM)

Q: For `CNC(=O)c1cnc(-c2ccc(NCC3(c4ncccc4F)CCC3)nn2)s1` [{2-[6-({[(3-fluoro(2-pyridyl))cyclobutyl]methyl}ami-no)pyridazin-3-yl](1,3-thiazol-5-yl)}-N-methylcarboxamide], which “Mean AC1.4” value is on record?
A: A (A=<1 uM)

Q: Which “Mean AC1.4” value does the source give for `CCOC(=O)c1c(-c2ccc(NCC3(c4ncccc4F)CCC3)nn2)n[nH]c1O` [ethyl 3-[6-({[(3-fluoro(2-pyridyl))cyclobutyl]methyl}ami-no)pyridazin-3-yl]-5-hydroxypyrazole-4-carboxylate] here?
A: D (D=>20 uM)

Q: `O=C(O)c1cnc(-c2ccc(NCC3(c4ccccn4)CCC3)nn2)s1` [2-(6-{[(2-pyridylcyclobutyl)methyl]ami-no}pyridazin-3-yl)-1,3-thiazole-5-carboxylic acid] was tested. Which “Mean AC1.4” value did it give?
A: C (C=10-20 uM)

Q: With `NC(=O)c1nnc(-c2ccc(NCC3(c4ncccc4F)CCC3)nn2)s1` [5-[6-({[(3-fluoro-2-pyridyl)cyclobutyl]methyl}ami-no)pyridazin-3-yl]-1,3,4-thiadiazole-2-carboxamide] as the molecule, how does the “Mean AC1.4” value read?
A: B (B=1-10 uM)

Q: Which “Mean AC1.4” value does the source give for `CS(=O)(=O)Nc1ncc(-c2ccc(NCC3(c4ncccc4F)CCC3)nn2)cn1` here?
A: D (D=>20 uM)

Q: How did the “Mean AC1.4” value turn out when `CC(C)(CO)Nc1ccc(-c2cccc(C(N)=O)c2)nn1` was run?
A: D (D=>20 uM)

same assay, conditions: median AC1.4 reported as class; procedure of Example 39

Q: For `CNC(=O)c1cc(C)cc(-c2ccc(NC[C@]3(c4ncccc4F)C[C@H](F)C3)nn2)c1` [{3-[6-({[3-fluoro-1-(3-fluoro(2-pyridyl))cyclobutyl]methyl}ami-no)pyridazin-3-yl]-5-methylphenyl}-N-methylcarboxamide], which “Mean AC1.4” value is on record?
A: B (B=1-10 uM)

Q: For `O=C(N[C@@H]1CCNC1=O)c1ccc(NCC2(c3ncccc3F)CCC2)nn1` [N-((3R)-2-oxopyrrolidin-3-yl)[6-({[(3-fluoro(2-pyridyl))cyclobutyl]methyl}ami-no)pyridazin-3-yl]carboxamide], which “Mean AC1.4” value is on record?
A: D (D=>20 uM)

Q: Which “Mean AC1.4” value does the source give for `O=C(O)c1cc(-c2ccc(NCC3(c4ncccc4F)CCC3)nn2)c[nH]c1=O` [5-[6-({[(3-fluoro(2-pyridyl))cyclobutyl]methyl}ami-no)pyridazin-3-yl]-2-oxohydropyridine-3-carboxylic acid] here?
A: D (D=>20 uM)

Q: For `CS(=O)(=O)N1CC(NC(=O)c2cccc(-c3ccc(NC[C@]4(c5ncccc5F)C[C@H](F)C4)nn3)c2)C1` [{3-[6-({[3-fluoro-1-(3-fluoro(2-pyridyl))cyclobutyl]methyl}ami-no)pyridazin-3-yl]phenyl}-N-[1-(methylsulfonyl)azetidin-3-yl]carboxamide], which “Mean AC1.4” value is on record?
A: B (B=1-10 uM)

Q: `CNc1ccc(-c2ccc(NC[C@]3(c4ncccc4F)C[C@H](F)C3)nn2)cc1C(=O)OC` [methyl 5-[6-({[3-fluoro-1-(3-fluoro(2-pyridyl))cyclobutyl]methyl}ami-no)pyridazin-3-yl]-2-(methylamino)benzoate] was tested. Which “Mean AC1.4” value did it give?
A: B (B=1-10 uM)

Q: `O=c1cc(-c2ccc(NCC3(c4ncccc4F)CCC3)nn2)nc2[nH]ccn12` [7-[6-({[(3-fluoro-2-pyridyl)cyclobutyl]methyl}ami-no)pyridazin-3-yl]-4-hydro-4-imidazolino[1,2-a]pyrimidin-5-one] was tested. Which “Mean AC1.4” value did it give?
A: B (B=1-10 uM)

Q: With `O=C(NC1CCC1)c1ccc(F)c(-c2ccc(NC[C@]3(c4ncccc4F)C[C@H](F)C3)nn2)c1` [N-cyclobutyl{4-fluoro-3-[6-({[3-fluoro-1-(3-fluoro(2-pyridyl))cyclobutyl]methyl}ami-no)pyridazin-3-yl]phenyl}carboxamide] as the molecule, how does the “Mean AC1.4” value read?
A: A (A=<1 uM)
